Results published in patent US20230085307A1, “PYRIDAZINONE COMPOUND AND HERBICIDE” (NISSAN CHEMICAL CORPORATION, priority 2019, published 2023).

What was measured:
late watergrass = assay: Test Example 1: herbicidal activity, application before weed generation under submerged conditions (Table 16, symbol A); type: in vivo, late watergrass (Echinochloa oryzicola); settings: amount of applied herbicide 320 g/ha
Procedure, shortened: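 Alluvial soil was flooded to 4 cm depth, weed seeds were sown mixed and 2.5-leaf rice seedlings were transplanted. On sowing day, the compound's emulsion, diluted in water to a set dose, was applied to the water surface. Plants grew at 25–30 °C and were scored 0–5 after three weeks.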

oval-leafed pondweed = assay: Test Example 2: herbicidal activity, application during weed generation under submerged conditions (Table 17, symbol C); type: in vivo, oval-leafed pondweed (Monochoria vaginalis); settings: AAH 320 g/ha; application during weed generation, submerged conditions
Procedure, shortened: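 Wagner pot, alluvial soil, 4 cm flood; mixed sowing of all species; greenhouse 25° C.–30° C. Emulsifiable formulation, water-diluted to predetermined dose, applied to paddy water at 1–2 leaf stage. Effect rated at 3 wk using the earlier test's scoring criteria.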

Chinese sprangletop = assay: Test Example 3: herbicidal effect by foliage application, Wagner pot (Table 18, symbol D); type: in vivo, chinese sprangletop (Leptochloa chinensis); settings: 320 g/ha
Procedure, shortened: (§1)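 Plants were sown in alluvial soil held under 0.1–0.5 cm standing water and grown 14 days in a greenhouse at 25–30 °C. An emulsifiable formulation, water-diluted to the set dose, was then sprayed onto the foliage, and effects were scored three weeks later using previously defined criteria.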

rice flat sedge = assay: Test Example 3: herbicidal effect by foliage application, Wagner pot (Table 18, symbol E); type: in vivo, rice flat sedge (Cyperus iria); settings: 320 g/ha
Procedure, shortened: as §1

green foxtail = assay: Test Example 4: herbicidal effect by soil treatment (Table 19, symbol G); type: in vivo, green foxtail (Setaria viridis); settings: amount of applied herbicide 320 g/ha
Procedure, shortened: (§2)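 Pre-emergence style soil spray: seeds under ~1.5 cm sterilized diluvial soil received a uniform coat of emulsion diluted to the predetermined herbicide amount. Greenhouse 25–30° C; readout at week three on previously defined criteria.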

wild oat = assay: Test Example 4: herbicidal effect by soil treatment (Table 19, symbol I); type: in vivo, wild oat (Avena fatua); settings: amount of applied herbicide 320 g/ha
Procedure, shortened: as §2

Italian ryegrass [1] = assay: Test Example 4: herbicidal effect by soil treatment (Table 19, symbol K); type: in vivo, Italian ryegrass (Lolium multiflorum); settings: amount of applied herbicide 320 g/ha
Procedure, shortened: as §2

windgrass [2] = assay: Test Example 4: herbicidal effect by soil treatment (Table 19, symbol L); type: in vivo, windgrass (Apera spica-venti); settings: amount of applied herbicide 320 g/ha
Procedure, shortened: as §2

velvetleaf [3] = assay: Test Example 4: herbicidal effect by soil treatment (Table 19, symbol M); type: in vivo, velvetleaf (Abutilon theophrasti); settings: amount of applied herbicide 320 g/ha
Procedure, shortened: as §2

lambsquarters = assay: Test Example 4: herbicidal effect by soil treatment (Table 19, symbol O); type: in vivo, lambsquarters (Chenopodium album); settings: amount of applied herbicide 320 g/ha
Procedure, shortened: as §2

persian speedwell = assay: Test Example 4: herbicidal effect by soil treatment (Table 19, symbol R); type: in vivo, Persian speedwell (Veronica persica); settings: amount of applied herbicide 320 g/ha
Procedure, shortened: as §2

barnyard grass = assay: Test Example 5: herbicidal effect by foliage application, plastic box (Table 20, symbol H); type: in vivo, barnyard grass (Echinochloa crus-galli); settings: 320 g/ha; for herbicidal effect on H: barnyard grass (evaluation grade 0-5): foliage application after 14-day growth, evaluated three weeks after application
Procedure, shortened: (§3)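 Plants were sown into sterilized diluvial soil under about 1.5 cm cover and kept in a greenhouse at 25° C. to 30° C. Fourteen days on, foliage received an even spray of the diluted emulsion. Herbicidal or crop effect was judged three weeks afterwards.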

Italian ryegrass [4] = assay: Test Example 5: herbicidal effect by foliage application, plastic box (Table 20, symbol K); type: in vivo, Italian ryegrass (Lolium multiflorum); settings: 320 g/ha; for herbicidal effect on K: Italian ryegrass (evaluation grade 0-5): foliage application after 14-day growth, evaluated three weeks after application
Procedure, shortened: as §3

windgrass [5] = assay: Test Example 5: herbicidal effect by foliage application, plastic box (Table 20, symbol L); type: in vivo, windgrass (Apera spica-venti); settings: 320 g/ha; for herbicidal effect on L: windgrass (evaluation grade 0-5): foliage application after 14-day growth, evaluated three weeks after application
Procedure, shortened: as §3

velvetleaf [6] = assay: Test Example 5: herbicidal effect by foliage application, plastic box (Table 20, symbol M); type: in vivo, velvetleaf (Abutilon theophrasti); settings: 320 g/ha; for herbicidal effect on M: velvetleaf (evaluation grade 0-5): foliage application after 14-day growth, evaluated three weeks after application
Procedure, shortened: as §3

chickweed = assay: Test Example 5: herbicidal effect by foliage application, plastic box (Table 20, symbol P); type: in vivo, common chickweed (Stellaria media); settings: 320 g/ha; for herbicidal effect on P: chickweed (evaluation grade 0-5): foliage application after 14-day growth, evaluated three weeks after application
Procedure, shortened: as §3

[7] = foliage application, three weeks after application

Row | Structure (SMILES) | Herbicidal effect, A: late watergrass (late watergrass) | herbicidal effect rating, C: oval-leafed pondweed (oval-leafed pondweed) | herbicidal effect on Chinese sprangletop (D) (Chinese sprangletop) | herbicidal effect on rice flat sedge (E) (rice flat sedge) | Herbicidal effect by soil treatment, G: green foxtail (green foxtail) | Herbicidal effect by soil treatment, I: wild oat (wild oat) | Herbicidal effect by soil treatment, K: Italian ryegrass (Italian ryegrass [1]) | Herbicidal effect by soil treatment, L: windgrass (windgrass [2]) | Herbicidal effect by soil treatment, M: velvetleaf (velvetleaf [3]) | Herbicidal effect by soil treatment, O: lambsquarters (lambsquarters) | Herbicidal effect by soil treatment, R: persian speedwell (persian speedwell) | herbicidal effect on H: barnyard grass (evaluation grade 0-5) (barnyard grass) | herbicidal effect on K: Italian ryegrass (evaluation grade 0-5) (Italian ryegrass [4]) | herbicidal effect on L: windgrass (evaluation grade 0-5) (windgrass [5]) | herbicidal effect on M: velvetleaf (evaluation grade 0-5) (velvetleaf [6]) | herbicidal effect on P: chickweed (evaluation grade 0-5) (chickweed) | other results
1 | CCCC(=O)Oc1c(C)nn(C)c(=O)c1-c1c(-c2ccccc2OCC)sc2c(Cl)cccc12 [4-026] | 5 (Herbicidal rate of 90% or more (almost completely withered)) | 2 (Herbicidal rate of 20% or more and less than 40%) | 5 (Herbicidal rate of 90% or more (almost completely withered)) | 5 (Herbicidal rate of 90% or more (almost completely withered)) | 3 (Herbicidal rate of 40% or more and less than 70%) | 0 (Herbicidal rate of 5% or less (almost no effect)) | 0 (Herbicidal rate of 5% or less (almost no effect)) | 0 (Herbicidal rate of 5% or less (almost no effect)) | 0 (Herbicidal rate of 5% or less (almost no effect)) | 0 (Herbicidal rate of 5% or less (almost no effect)) | 2 (Herbicidal rate of 20% or more and less than 40%) | 5 (Herbicidal rate of 90% or more (almost completely withered)) | 1 (Herbicidal rate of 5% or more and less than 20%) | 5 (Herbicidal rate of 90% or more (almost completely withered)) | 5 (Herbicidal rate of 90% or more (almost completely withered)) | 5 (Herbicidal rate of 90% or more (almost completely withered)) | 
2 | COc1ccccc1-c1sc2cc(OCC3CC3)ccc2c1-c1c(O)c(C)nn(C)c1=O [3-129] | 5 (Herbicidal rate of 90% or more (almost completely withered)) | 3 (Herbicidal rate of 40% or more and less than 70%) | 4 (Herbicidal rate of 70% or more and less than 90%) | 5 (Herbicidal rate of 90% or more (almost completely withered)) |  |  |  |  |  |  |  |  |  |  |  |  | G: green foxtail, herbicidal effect grade (green foxtail): 5 (Herbicidal rate of 90% or more (almost completely withered)); I: wild oat, herbicidal effect grade (wild oat): 1 (Herbicidal rate of 5% or more and less than 20%); K: Italian ryegrass, herbicidal effect grade (Italian ryegrass [1]): 5 (Herbicidal rate of 90% or more (almost completely withered)); L: windgrass, herbicidal effect grade (windgrass [2]): 5 (Herbicidal rate of 90% or more (almost completely withered)); M: velvetleaf, herbicidal effect grade (velvetleaf [3]): 0 (Herbicidal rate of 5% or less (almost no effect)); O: lambsquarters, herbicidal effect grade (lambsquarters): 5 (Herbicidal rate of 90% or more (almost completely withered)); R: persian speedwell, herbicidal effect grade (persian speedwell): 4 (Herbicidal rate of 70% or more and less than 90%); H: barnyard grass, herbicidal effect grade (barnyard grass; [7]): 4 (Herbicidal rate of 70% or more and less than 90%); K: Italian ryegrass, herbicidal effect grade (Italian ryegrass [4]; [7]): 5 (Herbicidal rate of 90% or more (almost completely withered)); L: windgrass, herbicidal effect grade (windgrass [5]; [7]): 5 (Herbicidal rate of 90% or more (almost completely withered)); M: velvetleaf, herbicidal effect grade (velvetleaf [6]; [7]): 4 (Herbicidal rate of 70% or more and less than 90%); P: chickweed, herbicidal effect grade (chickweed; [7]): 5 (Herbicidal rate of 90% or more (almost completely withered))
3 | CCCC(=O)Oc1c(C)nn(C)c(=O)c1-c1c(-c2ccc(F)cc2OCC)sc2c(Cl)cccc12 [4-036] | 4 (Herbicidal rate of 70% or more and less than 90%) | 0 (Herbicidal rate of 5% or less (almost no effect)) | 5 (Herbicidal rate of 90% or more (almost completely withered)) | 5 (Herbicidal rate of 90% or more (almost completely withered)) | 3 (Herbicidal rate of 40% or more and less than 70%) | 0 (Herbicidal rate of 5% or less (almost no effect)) | 0 (Herbicidal rate of 5% or less (almost no effect)) | 0 (Herbicidal rate of 5% or less (almost no effect)) | 2 (Herbicidal rate of 20% or more and less than 40%) | 1 (Herbicidal rate of 5% or more and less than 20%) | 2 (Herbicidal rate of 20% or more and less than 40%) | 5 (Herbicidal rate of 90% or more (almost completely withered)) | 4 (Herbicidal rate of 70% or more and less than 90%) | 4 (Herbicidal rate of 70% or more and less than 90%) | 5 (Herbicidal rate of 90% or more (almost completely withered)) | 5 (Herbicidal rate of 90% or more (almost completely withered)) | 
4 | CCCOc1ccc(-c2sc3c(F)cccc3c2-c2c(OC(=O)CCC)c(C)nn(C)c2=O)cc1 [4-010] | 3 (Herbicidal rate of 40% or more and less than 70%) | 3 (Herbicidal rate of 40% or more and less than 70%) | 4 (Herbicidal rate of 70% or more and less than 90%) | 5 (Herbicidal rate of 90% or more (almost completely withered)) | 0 (Herbicidal rate of 5% or less (almost no effect)) | 0 (Herbicidal rate of 5% or less (almost no effect)) | 2 (Herbicidal rate of 20% or more and less than 40%) | 0 (Herbicidal rate of 5% or less (almost no effect)) | 0 (Herbicidal rate of 5% or less (almost no effect)) | 3 (Herbicidal rate of 40% or more and less than 70%) | 3 (Herbicidal rate of 40% or more and less than 70%) | 5 (Herbicidal rate of 90% or more (almost completely withered)) | 4 (Herbicidal rate of 70% or more and less than 90%) | 0 (Herbicidal rate of 5% or less (almost no effect)) | 3 (Herbicidal rate of 40% or more and less than 70%) | 5 (Herbicidal rate of 90% or more (almost completely withered)) | 
